“And” between values parts separate entries of the source, which are not always exact repeats. Identical values can stand only once.
Key:
[1] = Plasma concentrations in patients on oral antitumor therapy (LC-MS); format: in vivo, human; settings: for Interpatient Coefficient of Variation [%]: patient plasma concentrations; for Median Concentration of All Samples [% of r.c.] / Min–Max Concentration [% of r.c.]: patient plasma, r.c. = respective cmin, all samples
Text: The liquid chromatography-mass spectrometer system consisted of a Thermo Scientific Dionex UltiMate^TM 3000 with an integrated and temperature controlled autosampler (Thermo Fisher Scientific, Dreieich, Germany). An Acquity UPLC® BEH C18 column (2.1 × 100 mm, 1.7 µm; Waters, Milford, CT, USA) equipped with an Acquity UPLC® BEH C18 VanGuard^TM Pre-Column (2.1 × 5 mm, 1.7 µm; Waters, Milford, CT, USA) was used for chromatographic separation. The Q-Exactive^TM Focus mass spectrometer (MS) was hyphenated with a heated electrospray ionization (HESI) source (both from Thermo Fisher Scientific, Dreieich, Germany).
Chromatographic separation was achieved using a gradient elution with water containing 0.5% (v/v) FA (eluent A) and MeOH with 0.1% (v/v) FA (eluent B). The injection volume was 5 µL. The gradient program is shown in Supplement Table S2. The flow rate was 0.5 mL/min with a total run time of 15 min. The column heater was maintained at 50 °C and the autosampler temperature was 4 °C.
The following MS and HESI settings were maintained for all analyses: Sheath gas, auxiliary gas, and sweep gas flow rates were set to 60, 20, and 0, respectively. The spray voltage was 4000 V. Both capillary and auxiliary gas heater temperatures were set to 400 °C. High-purity nitrogen gas was used for the HESI source gases and for the bath gas of the C-trap. […] The HESI source was configured in positive mode for ionization.
The stock solutions were stored in glass vials at −80 °C. Aliquots of all stock solutions were combined in ACN (volumes of individual stock solution solvents are negligible) to obtain a standard solution of all analytes with an individual concentration of 200% of the respective trough level (cmin). Eight individual working standards were prepared by stepwise dilution of this standard solution with concentrations from 10 to 200% cmin (shown in Supplement Table S3). Furthermore, the four individual IS stock solutions were combined and diluted to 50 ng/mL with ACN. Calibration and validation standards were prepared by spiking 50 µL pooled human plasma with 10 µL of the respective working solution. Next, 250 µL IS solution (50 ng/mL in ACN) were added and vortexed vigorously. […] Then, 100 µL supernatant were transferred to 300 µL HPLC insert glass vials and diluted with 100 µL eluent (90% A/10% B). For blank samples, 50 µL pooled human plasma were combined with 10 µL ACN (instead of working solution) and prepared as described above. The calibration and validation standards were freshly prepared before every run. Patient plasma samples were prepared as calibration and validation standards (no additional processing step necessary), except for adding 10 µL ACN instead of 10 µL working standard. Before sample preparation, the frozen plasma samples were thawed in absence of light at 4 °C.
Blood samples were collected over the entire dosing interval from patients treated with an oral anticancer drug as listed in Supplement Table S4. […] A maximum of two samples at two different time points throughout the entire dosing interval were collected per patient. Treatment duration before collection was at least five half-lives (depending on the specific oral anticancer drug). The samples were collected in K3-EDTA tubes.
A total of 71 blood samples from 39 patients treated with 14 different oral anticancer drugs were collected (see Supplement Table S4 for details). All patients were recruited from independent outpatient clinics associated with the Comprehensive Cancer Center of the University Hospital Erlangen (CCC Erlangen-EMN). Of 71 blood samples, 41 were taken ±4 h of trough level (cmin).

[2] = 244 plasma samples; cited from earlier work
[3] = Reference trough level (cmin) at steady state; format: in vivo, human; settings: minimum steady-state plasma concentration, calculated based on cmax; ref supplement [7], [2,5,24], [51]
[4] = human

C[C@]12CC[C@H](O)CC1=CC[C@@H]1[C@@H]2CC[C@]2(C)C(c3cccnc3)=CC[C@@H]12 [Abiraterone]
CV of plasma concentration at ±4 h of trough level ([1]; 14 patient samples): 140.8%
average concentration of the plasma samples at ±4 h of trough level ([1]; 14 patient samples): 10.2 ng/mL
range of plasma concentration at ±4 h of trough level ([1]; 14 patient samples): 0.4 to 59.5 ng/mL
Interpatient Coefficient of Variation [%] [1]: 187.3%
Median Concentration of All Samples [% of r.c.] [1]: 229.0 % of r.c.
Min–Max Concentration [% of r.c.] [1]: 4.3–1784.9 % of r.c.
average plasma concentration [2]: 9.3 ng/mL
range of plasma concentration [2]: 2.0 to 49.8 ng/mL

O=C1CN2Cc3c(ccc(Cl)c3Cl)N=C2N1 [Anagrelide]
cmin [3]: 1.5 ng/mL

CNC(=O)c1ccccc1Sc1ccc2c(/C=C/c3ccccn3)n[nH]c2c1 [Axitinib]
Measured plasma concentration ([1]; 6 mg/day, 12 h, ±4 h of trough level: no): 0.3 ng/mL
Min–Max Concentration [% of r.c.] [1]: 6.0 % of r.c.

CC(C)(C)c1nc(-c2cccc(NS(=O)(=O)c3c(F)cccc3F)c2F)c(-c2ccnc(N)n2)s1 [Dabrafenib]
Median Concentration of All Samples [% of r.c.] [1]: 722.3 % of r.c.
Min–Max Concentration [% of r.c.] [1]: 455.8–988.8 % of r.c.

CNC(=O)c1ccc(N2C(=S)N(c3ccc(C#N)c(C(F)(F)F)c3)C(=O)C2(C)C)cc1F [Enzalutamide]
Measured plasma concentration ([1]; 160 mg/day, 24 h, ±4 h of trough level: yes): 11296.4 ng/mL and 14087.2 ng/mL and 14395.8 ng/mL and 17580.7 ng/mL and 11074.7 ng/mL
Median Concentration of All Samples [% of r.c.] [1]: 120.1 % of r.c.
Min–Max Concentration [% of r.c.] [1]: 97.1–154.2 % of r.c.

Cc1ccc(NC(=O)c2ccc(CN3CCN(C)CC3)cc2)cc1Nc1nccc(-c2cccnc2)n1 [Imatinib]
Measured plasma concentration ([1]; 400 mg/day, 24 h, ±4 h of trough level: yes): 1998.2 ng/mL and 1309.6 ng/mL
Interpatient Coefficient of Variation [%] [1]: 29.4%
Median Concentration of All Samples [% of r.c.] [1]: 168.9 % of r.c.

C=CC(=O)Nc1cc(Nc2nccc(-c3cn(C)c4ccccc34)n2)c(OC)cc1N(C)CCN(C)C [Osimertinib]
Measured plasma concentration ([1]; 80 mg/day, 24 h, ±4 h of trough level: no): 167.8 ng/mL
Min–Max Concentration [% of r.c.] [1]: 101.1 % of r.c.

Cc1ccc(Nc2nccc(N(C)c3ccc4c(C)n(C)nc4c3)n2)cc1S(N)(=O)=O [Pazopanib]
Measured plasma concentration ([1]; 200 mg/day, 24 h, ±4 h of trough level: yes): 24300.0 ng/mL and 21520.0 ng/mL
Median Concentration of All Samples [% of r.c.] [1]: 81.5 % of r.c.
Min–Max Concentration [% of r.c.] [1]: 76.6–86.5 % of r.c.

Cc1ccc(C(=O)Nc2ccc(CN3CCN(C)CC3)c(C(F)(F)F)c2)cc1C#Cc1cnc2cccnn12 [Ponatinib]
Short-time stability (1h, 56°C) Accuracy [%] [4]: 30.7%
Short-time stability (24h, 4°C, without daylight) Accuracy [%] [4]: 95.7%
Short-time stability (24h, RT, with daylight) Accuracy [%] [4]: 89.6%
Short-time stability (24h, RT, without daylight) Accuracy [%] [4]: 91.7%

COc1cc2nccc(Oc3ccc(NC(=O)Nc4cc(C)on4)c(Cl)c3)c2cc1OC [Tivozanib]
Interpatient Coefficient of Variation [%] [1]: 53.8%
Median Concentration of All Samples [% of r.c.] [1]: 41.4 % of r.c.
Min–Max Concentration [% of r.c.] [1]: 16.4–68.3 % of r.c.

O=c1[nH]c(=O)n([C@H]2C[C@H](O)[C@@H](CO)O2)cc1C(F)(F)F [Trifluridine]
cmin [3]: 1135 ng/mL

COc1cc2c(Nc3ccc(Br)cc3F)ncnc2cc1OCC1CCN(C)CC1 [Vandetanib]
Measured plasma concentration ([1]; 300 mg/day, 24 h, ±4 h of trough level: no): 757.7 ng/mL and 621.3 ng/mL
Median Concentration of All Samples [% of r.c.] [1]: 86.7 % of r.c.
Min–Max Concentration [% of r.c.] [1]: 78.2–95.3 % of r.c.

— article PMC8699473, “An Easily Expandable Multi-Drug LC-MS Assay for the Simultaneous Quantification of 57 Oral Antitumor Drugs in Human Plasma” (Cancers, 2021)
